Measurements: ChEMBL document CHEMBL1275492, “In vitro activity of ceftobiprole against pathogens from two phase 3 clinical trials of complicated skin and skin structure infections” (2008)
Converted amounts (≈) assume the structure as drawn.

Key:
Assay type in all cases: functional
[1] = Antibacterial activity against Streptococcus sp. 'group G' obtained from complicated skin and skin structure infections by agar dilution method
Enterococcus faecalis = assay: Antibacterial activity against Enterococcus faecalis obtained from complicated skin and skin structure infections by agar dilution method
Bacillus = assay: Antibacterial activity against Bacillus spp. obtained from complicated skin and skin structure infections by agar dilution method
Micrococcus = assay: Antibacterial activity against Micrococcus spp. obtained from complicated skin and skin structure infections by agar dilution method
Aerococcus viridans = assay: Antibacterial activity against Aerococcus viridans obtained from complicated skin and skin structure infections by agar dilution method
Streptococcus agalactiae = assay: Antibacterial activity against Streptococcus agalactiae obtained from complicated skin and skin structure infections by agar dilution method
Gemella morbillorum = assay: Antibacterial activity against Gemella morbillorum obtained from complicated skin and skin structure infections […]
[2] = system: Streptococcus constellatus; assay: Antibacterial activity against Streptococcus constellatus obtained from complicated skin and skin structure infections by agar dilution method
Streptococcus mitis = assay: Antibacterial activity against Streptococcus mitis obtained from complicated skin and skin structure infections by agar dilution method
Lactococcus lactis = assay: Antibacterial activity against Lactococcus lactis obtained from complicated skin and skin structure infections by agar dilution method
Streptococcus pyogenes = assay: Antibacterial activity against Streptococcus pyogenes obtained from complicated skin and skin structure infections by agar dilution method
Enterococcus faecium = assay: Antibacterial activity against Enterococcus faecium obtained from complicated skin and skin structure infections by agar dilution method
[3] = system: Staphylococcus intermedius; assay: Antibacterial activity against Staphylococcus intermedius obtained from complicated skin and skin structure infections by agar dilution method
Gemella = assay: Antibacterial activity against Gemella spp. obtained from complicated skin and skin structure infections by agar dilution method
[4] = Antibacterial activity against Streptococcus sp. 'group C' obtained from complicated skin and skin structure infections by agar dilution method
Citrobacter freundii = assay: Antibacterial activity against Citrobacter freundii obtained from complicated skin and skin structure infections by agar dilution method
Enterobacter amnigenus = assay: Antibacterial activity against Enterobacter amnigenus obtained from complicated skin and skin structure infections by agar dilution method; details: Lelliottia amnigena
Proteus penneri = assay: Antibacterial activity against Proteus penneri obtained from complicated skin and skin structure infections by agar dilution method
Enterobacter cloacae = assay: Antibacterial activity against Enterobacter cloacae obtained from complicated skin and skin structure infections by agar dilution method
[5] = system: Stenotrophomonas maltophilia; assay: Antibacterial activity against Stenotrophomonas maltophilia obtained from complicated skin and skin structure infections by agar dilution method
Pseudomonas aeruginosa = assay: Antibacterial activity against Pseudomonas aeruginosa obtained from complicated skin and skin structure infections by agar dilution method
Pseudomonas fluorescens = assay: Antibacterial activity against Pseudomonas fluorescens obtained from complicated skin and skin structure infections by agar dilution method
Klebsiella pneumoniae = assay: Antibacterial activity against Klebsiella pneumoniae obtained from complicated skin and skin structure infections by agar dilution method
Proteus vulgaris = assay: Antibacterial activity against Proteus vulgaris obtained from complicated skin and skin structure infections by agar dilution method
Citrobacter braakii = assay: Antibacterial activity against Citrobacter braakii obtained from complicated skin and skin structure infections by agar dilution method
Morganella morganii = assay: Antibacterial activity against Morganella morganii obtained from complicated skin and skin structure infections by agar dilution method
Serratia marcescens = assay: Antibacterial activity against Serratia marcescens obtained from complicated skin and skin structure infections by agar dilution method
Salmonella = assay: Antibacterial activity against Salmonella spp. obtained from complicated skin and skin structure infections by agar dilution method
Klebsiella aerogenes = assay: Antibacterial activity against Enterobacter aerogenes obtained from complicated skin and skin structure infections by agar dilution method
Proteus mirabilis = assay: Antibacterial activity against Proteus mirabilis obtained from complicated skin and skin structure infections by agar dilution method
Providencia stuartii = assay: Antibacterial activity against Providencia stuartii obtained from complicated skin and skin structure infections by agar dilution method
Escherichia coli = assay: Antibacterial activity against Escherichia coli obtained from complicated skin and skin structure infections by agar dilution method
Acinetobacter baumannii = assay: Antibacterial activity against Acinetobacter baumannii obtained from complicated skin and skin structure infections by agar dilution method
Klebsiella oxytoca = assay: Antibacterial activity against Klebsiella oxytoca obtained from complicated skin and skin structure infections by agar dilution method

CC1(C)S[C@@H]2[C@H](NC(=O)Cc3ccccc3)C(=O)N2[C@H]1C(=O)O [PENICILLIN G]
MIC [1]: ≤ 0.03 µg/mL
MIC50 [1]: ≤ 0.03 µg/mL
MIC90 [1]: ≤ 0.03 µg/mL
MIC (Enterococcus faecalis): 2 µg/mL (≈ 5.98 µM)
MIC50 (Enterococcus faecalis): 2 µg/mL (≈ 5.98 µM)
MIC90 (Enterococcus faecalis): 4 µg/mL (≈ 12 µM)
MIC50 (Bacillus): ≤ 0.03 µg/mL
MIC90 (Bacillus): 1 µg/mL (≈ 2.99 µM)
MIC50 (Micrococcus): ≤ 0.03 µg/mL
MIC90 (Micrococcus): 1 µg/mL (≈ 2.99 µM)
MIC50 (Aerococcus viridans): ≤ 0.03 µg/mL
MIC90 (Aerococcus viridans): 1 µg/mL (≈ 2.99 µM)
MIC50 (Streptococcus agalactiae): 0.06 µg/mL (≈ 0.179 µM)
MIC90 (Streptococcus agalactiae): 0.06 µg/mL (≈ 0.179 µM)
MIC50 (Gemella morbillorum): ≤ 0.03 µg/mL
MIC90 (Gemella morbillorum): 1 µg/mL (≈ 2.99 µM)
MIC [2]: ≤ 0.03 µg/mL
MIC50 [2]: ≤ 0.03 µg/mL
MIC90 [2]: 0.12 µg/mL (≈ 0.359 µM)
MIC50 (Streptococcus mitis): 0.5 µg/mL (≈ 1.5 µM)
MIC90 (Streptococcus mitis): 0.5 µg/mL (≈ 1.5 µM)
MIC50 (Lactococcus lactis): ≤ 0.03 µg/mL
MIC90 (Lactococcus lactis): 1 µg/mL (≈ 2.99 µM)
MIC (Streptococcus pyogenes): ≤ 0.03 µg/mL
MIC50 (Streptococcus pyogenes): ≤ 0.03 µg/mL
MIC90 (Streptococcus pyogenes): ≤ 0.03 µg/mL
MIC (Enterococcus faecium): > 4 µg/mL
MIC50 (Enterococcus faecium): > 4 µg/mL
MIC50 [3]: 0.5 µg/mL (≈ 1.5 µM)
MIC90 [3]: 0.5 µg/mL (≈ 1.5 µM)
MIC50 (Gemella): ≤ 0.03 µg/mL
MIC90 (Gemella): 1 µg/mL (≈ 2.99 µM)
MIC [4]: ≤ 0.03 µg/mL
MIC50 [4]: ≤ 0.03 µg/mL
MIC90 [4]: 0.06 µg/mL (≈ 0.179 µM)

CC(C)(O/N=C(\C(=O)N[C@@H]1C(=O)N2C(C(=O)[O-])=C(C[n+]3ccccc3)CS[C@H]12)c1csc(N)n1)C(=O)O [CEFTAZIDIME]
MIC50 [1]: 0.25 µg/mL (≈ 0.457 µM)
MIC90 [1]: 0.25 µg/mL (≈ 0.457 µM)
MIC50 (Citrobacter freundii): 0.12 µg/mL (≈ 0.22 µM)
MIC90 (Citrobacter freundii): 16 µg/mL (≈ 29.3 µM)
MIC50 (Enterococcus faecalis): > 128 µg/mL
MIC90 (Enterococcus faecalis): > 128 µg/mL
MIC50 (Enterobacter amnigenus): 0.12 µg/mL (≈ 0.22 µM)
MIC90 (Enterobacter amnigenus): 16 µg/mL (≈ 29.3 µM)
MIC50 (Bacillus): 1 µg/mL (≈ 1.83 µM)
MIC90 (Bacillus): 64 µg/mL (≈ 117 µM)
MIC50 (Proteus penneri): 0.12 µg/mL (≈ 0.22 µM)
MIC90 (Proteus penneri): 16 µg/mL (≈ 29.3 µM)
MIC50 (Micrococcus): 1 µg/mL (≈ 1.83 µM)
MIC90 (Micrococcus): 64 µg/mL (≈ 117 µM)
MIC50 (Enterobacter cloacae): 0.25 µg/mL (≈ 0.457 µM)
MIC90 (Enterobacter cloacae): 64 µg/mL (≈ 117 µM)
MIC50 [5]: > 16 µg/mL
MIC90 [5]: > 128 µg/mL
MIC50 (Aerococcus viridans): 1 µg/mL (≈ 1.83 µM)
MIC90 (Aerococcus viridans): 64 µg/mL (≈ 117 µM)
MIC50 (Pseudomonas aeruginosa): 2 µg/mL (≈ 3.66 µM)
MIC90 (Pseudomonas aeruginosa): > 128 µg/mL
MIC50 (Pseudomonas fluorescens): > 16 µg/mL
MIC90 (Pseudomonas fluorescens): > 128 µg/mL
MIC50 (Klebsiella pneumoniae): 0.12 µg/mL (≈ 0.22 µM)
MIC90 (Klebsiella pneumoniae): 64 µg/mL (≈ 117 µM)
MIC50 (Proteus vulgaris): 0.12 µg/mL (≈ 0.22 µM)
MIC90 (Proteus vulgaris): 16 µg/mL (≈ 29.3 µM)
MIC50 (Citrobacter braakii): 0.12 µg/mL (≈ 0.22 µM)
MIC90 (Citrobacter braakii): 16 µg/mL (≈ 29.3 µM)
MIC50 (Morganella morganii): ≤ 0.12 µg/mL
MIC90 (Morganella morganii): 8 µg/mL (≈ 14.6 µM)
MIC50 (Serratia marcescens): 0.12 µg/mL (≈ 0.22 µM)
MIC90 (Serratia marcescens): 16 µg/mL (≈ 29.3 µM)
MIC50 (Streptococcus agalactiae): 0.5 µg/mL (≈ 0.915 µM)
MIC90 (Streptococcus agalactiae): 1 µg/mL (≈ 1.83 µM)
MIC50 (Salmonella): 0.12 µg/mL (≈ 0.22 µM)
MIC90 (Salmonella): 16 µg/mL (≈ 29.3 µM)
MIC50 (Klebsiella aerogenes): 0.12 µg/mL (≈ 0.22 µM)
MIC90 (Klebsiella aerogenes): 16 µg/mL (≈ 29.3 µM)
MIC50 (Gemella morbillorum): 1 µg/mL (≈ 1.83 µM)
MIC90 (Gemella morbillorum): 64 µg/mL (≈ 117 µM)
MIC50 [2]: 2 µg/mL (≈ 3.66 µM)
MIC90 [2]: 4 µg/mL (≈ 7.32 µM)
MIC50 (Streptococcus mitis): 0.12 µg/mL (≈ 0.22 µM)
MIC90 (Streptococcus mitis): 0.25 µg/mL (≈ 0.457 µM)
MIC50 (Lactococcus lactis): 1 µg/mL (≈ 1.83 µM)
MIC90 (Lactococcus lactis): 64 µg/mL (≈ 117 µM)
MIC50 (Streptococcus pyogenes): 0.12 µg/mL (≈ 0.22 µM)
MIC90 (Streptococcus pyogenes): 0.12 µg/mL (≈ 0.22 µM)
MIC50 [3]: 0.12 µg/mL (≈ 0.22 µM)
MIC90 [3]: 0.25 µg/mL (≈ 0.457 µM)
MIC50 (Gemella): 1 µg/mL (≈ 1.83 µM)
MIC90 (Gemella): 64 µg/mL (≈ 117 µM)
MIC50 (Proteus mirabilis): 0.06 µg/mL (≈ 0.11 µM)
MIC90 (Proteus mirabilis): 2 µg/mL (≈ 3.66 µM)
MIC50 (Providencia stuartii): 0.12 µg/mL (≈ 0.22 µM)
MIC90 (Providencia stuartii): 16 µg/mL (≈ 29.3 µM)
MIC50 (Escherichia coli): 0.12 µg/mL (≈ 0.22 µM)
MIC90 (Escherichia coli): 0.25 µg/mL (≈ 0.457 µM)
MIC50 [4]: 0.5 µg/mL (≈ 0.915 µM)
MIC90 [4]: 4 µg/mL (≈ 7.32 µM)
MIC50 (Acinetobacter baumannii): > 16 µg/mL
MIC90 (Acinetobacter baumannii): > 128 µg/mL
MIC50 (Klebsiella oxytoca): 0.12 µg/mL (≈ 0.22 µM)
MIC90 (Klebsiella oxytoca): 16 µg/mL (≈ 29.3 µM)
